Holding throughout (type): functional
Experiment [1] relates to Mus musculus. The experiment can be described thus: Parenteral antimalarial activity against Plasmodium vinckei vinckei in mice (Mus musculus) measured as % cured and increase in MST (days) at 25 mg/kg dose.
The test system of experiment [2] is Mus musculus. Put plainly: Parenteral antimalarial activity against Plasmodium vinckei vinckei in mice (Mus musculus) measured as % cured and increase in MST (days) at 30 mg/kg dose.
The subject of experiment [3] is Mus musculus. Put plainly: Parenteral antimalarial activity against Plasmodium vinckei in mice (Mus musculus) measured as % cured and increase in MST (days) at 15 mg/kg dose.
Experiment [4] relates to Mus musculus. Put plainly: Parenteral antimalarial activity against Plasmodium vinckei vinckei in mice (Mus musculus) measured as % cured and increase in MST (days) at 20 mg/kg dose.
Experiment [5] concerns Mus musculus. Put plainly: Oral antimalarial activity against Plasmodium vinckei in mice (Mus musculus) measured as % cured and increase in MST (days) at 25 mg/kg dose.
In experiment [6] the test system is Mus musculus. Put plainly: Oral antimalarial activity against Plasmodium vinckei in mice (Mus musculus) measured as % cured and increase in MST (days) at 50 mg/kg dose.
For experiment [7], the system named is Mus musculus. The experiment can be described thus: Oral antimalarial activity against Plasmodium vinckei in mice (Mus musculus) measured as % cured and increase in MST (days) at 75 mg/kg dose.
The test system of experiment [8] is Mus musculus. The experiment can be described thus: Parenteral antimalarial activity against Plasmodium vinckei vinckei in mice (Mus musculus) measured as % cured and increase in MST (days) at 10 mg/kg dose.
Experiment [9] has as its system Mus musculus. The experiment can be described thus: Oral antimalarial activity against Plasmodium vinckei vinckei in mice (Mus musculus) measured as % cured and increase in MST (days) at 100 mg/kg dose.
For experiment [10], the system named is Mus musculus. The experiment can be described thus: Oral antimalarial activity against Plasmodium vinckei vinckei in mice (Mus musculus) measured as % cured and increase in MST (days) at 150 mg/kg dose.
Experiment [11] deals with Mus musculus. Put plainly: Parenteral antimalarial activity against Plasmodium vinckei in mice (Mus musculus) measured as % cured and increase in MST (days) at 25 mg/kg dose.
Experiment [12] concerns Mus musculus. Put plainly: Parenteral antimalarial activity against Plasmodium vinckei in mice (Mus musculus) measured as % cured and increase in MST (days) at 30 mg/kg dose.
For experiment [13], the system named is Mus musculus. Put plainly: Oral antimalarial activity against Plasmodium vinckei vinckei in mice (Mus musculus) measured as increase in mean survival time at 100 mg/kg dose.
For experiment [14], the system named is Mus musculus. Put plainly: Oral antimalarial activity against Plasmodium vinckei in mice (Mus musculus) measured as increase in mean survival time at 150 mg/kg dose.
For experiment [15], the system named is Mus musculus. Put plainly: Oral antimalarial activity against Plasmodium vinckei in mice (Mus musculus) measured as increase in mean survival time at 25 mg/kg dose.
The test system of experiment [16] is Mus musculus. The experiment can be described thus: Oral antimalarial activity against Plasmodium vinckei vinckei in mice (Mus musculus) measured as increase in mean survival time at 50 mg/kg dose.
In experiment [17] the test system is Mus musculus. The experiment can be described thus: Oral antimalarial activity against Plasmodium vinckei vinckei in mice (Mus musculus) measured as increase in mean survival time at 75 mg/kg dose.
Experiment [18] deals with Mus musculus. Put plainly: Parenteral antimalarial activity against Plasmodium vinckei vinckei in mice (Mus musculus) measured as increase in mean survival time at 20 mg/kg dose.
In experiment [19] the test system is Mus musculus. The experiment can be described thus: Parenteral antimalarial activity against Plasmodium vinckei vinckei in mice (Mus musculus) measured as increase in mean survival time at 25 mg/kg dose.
The subject of experiment [20] is Mus musculus. The experiment can be described thus: Parenteral antimalarial activity against Plasmodium vinckei vinckei in mice (Mus musculus) measured as increase in mean survival time at 30 mg/kg dose.
The subject of experiment [21] is Mus musculus. Put plainly: Parenteral antimalarial activity against Plasmodium vinckei in mice (Mus musculus) measured as increase in mean survival time at 10 mg/kg dose.
The subject of experiment [22] is Mus musculus. Put plainly: Parenteral antimalarial activity against Plasmodium vinckei in mice (Mus musculus) measured as increase in mean survival time at 15 mg/kg dose.

Drawing on ChEMBL document CHEMBL1124085, “Flavins as potential antimalarials. 1. 10-(Halophenyl)-3-methylflavins” (1988), this text covers Cured and MST for 3 compounds.

The structures appear in SMILES notation.

As to `O=c1nc2n(-c3ccc(Cl)cc3)c3ccccc3nc-2c(=O)[nH]1`, the Cured in the experiment on Mus musculus [1], in the experiment on Mus musculus [2], in the experiment with Mus musculus [3], with Mus musculus [4], with Mus musculus [5] and in the experiment with Mus musculus [6] was 0% in each case. Further, the Cured in the experiment with Mus musculus [7], in the experiment on Mus musculus [8], with Mus musculus [9] and with Mus musculus [10] was 0% each time. Further, the MST in the experiment on Mus musculus [3], in the experiment with Mus musculus [4], in the experiment with Mus musculus [8], with Mus musculus [11], in the experiment with Mus musculus [12] and in the experiment on Mus musculus [13] was 0 days throughout. Further, the MST in the experiment on Mus musculus [14], with Mus musculus [15], in the experiment on Mus musculus [16] and in the experiment with Mus musculus [17] was 0 days throughout.
As for `Cn1c(=O)nc2n(-c3ccc(Cl)c(Cl)c3)c3ccccc3nc-2c1=O`, the Cured in the experiment on Mus musculus [1] is on record as 80%; with Mus musculus [2], 60%; in the experiment with Mus musculus [3], 60%; in the experiment on Mus musculus [4] it was 100%; with Mus musculus [5], 0%; in the experiment with Mus musculus [6], 0%. Further, the Cured in the experiment on Mus musculus [7] is 0%; in the experiment on Mus musculus [8] it was 0%; with Mus musculus [9], 0%; with Mus musculus [10], 40%. Besides, the MST is 0.5 days in the experiment on Mus musculus [3]; 0.5 days in the experiment with Mus musculus [8]; 0 days in the experiment with Mus musculus [11]; 1 days in the experiment with Mus musculus [12]; 0.5 days in the experiment on Mus musculus [13]; 0 days with Mus musculus [15]. The MST with Mus musculus [16] came to 0 days; in the experiment on Mus musculus [17], 0.5 days.
Regarding `Cn1c(=O)nc2n(-c3ccc(Cl)cc3Cl)c3ccccc3nc-2c1=O`, the Cured in the experiment with Mus musculus [1], in the experiment with Mus musculus [2], with Mus musculus [3], with Mus musculus [4], with Mus musculus [5] and with Mus musculus [6] was 0% in each case. Further, the Cured with Mus musculus [7] turned out to be 40%; in the experiment with Mus musculus [8], 0%; with Mus musculus [9], 80%; in the experiment on Mus musculus [10], 60%. The MST with Mus musculus [18] is 0 days; with Mus musculus [19] it was -1.2 days; in the experiment with Mus musculus [20], -1 days; with Mus musculus [21], 1.7 days; in the experiment with Mus musculus [22], 0.5 days; in the experiment on Mus musculus [13], 1.5 days. Moreover, the MST in the experiment on Mus musculus [14] was 1.5 days; with Mus musculus [15] it was 0 days; with Mus musculus [16] it was 1.3 days; with Mus musculus [17], 1 days.
